Data published in US4492704A, “Quinoline quinones and anti-asthmatic use thereof” (Eli Lilly and Company, priority 1982, dated 1985).
Read-outs that look alike come from different tables or passages of the source.

Tests used:
[1] = pKa using 66% aqueous dimethylformamide solution; type: physicochemical
Experimental: The precipitate was then dissolved in a solution of 1 L of water and 50 g of sodium hydroxide and then heated to about 60° for about ten minutes. Slowly, 50 g of sodium dithionite were added with stirring. After the addition, the reaction solution was kept at about 60° for about three hours. An orange precipitate was formed and the reaction was then allowed to cool to room temperature and sodium chloride was added. The orange solid, which was filtered and then dried, weighed 19 g (70% yield).
The preparation of 2-methyl-5-amino-8-hydroxyquinoline follows the procedure outlined in Example 1, except 15.9 g of 2-methyl-8-hydroxyquinoline were used as the starting material. […] The mass spectrum indicated the expected molecular ion at m/e=174. The pKa was 5.00, using 66% aqueous dimethylformamide solution and the apparent molecular weight was 188.

[2] = system: SRS-A release; assay: Inhibition of SRS-A (leukotriene) release from ovalbumin-challenged sensitized guinea pig lung fragments; type: cell-based; conditions: for inhibition at 10 µM / inhibition at 1 µM / inhibition at 3 µM / inhibition at 30 µM: Cavia porcellus, read-out: Percent Inhibition of SRS-A Release
Experimental: Male, Hartley guinea pigs, usually 1-2 weeks old were sensitized with respect to ovalbumin by intraperitoneal administration of 0.15 ml hyperimmune serum obtained from guinea pigs actively sensitized against ovalbumin. […] Poorly perfused and bloody areas were discarded. Normal lung was cut into 1 mm cubes with a McIlwain tissue chopper, washed with Krebs' solution and divided into 400 mg aliquots. The fragmented tissue was then incubated at 37° C. for 15 minutes in Krebs' solution containing indomethacin to optimize SRS-A release and an appropriate concentration of experimental drug. Antigen (ovalbumin) was then added to make a final concentration of 1×10^-5 g/ml. Fifteen minutes later, the incubation medium was decanted and centrifuged at 3,000 g at 4° C. for 5 minutes. […] Release of SRS-A in the presence of an experimental drug was compared to a control sample and the results expressed as percent inhibition of SRS-A release.

[3] = 1 × 10^-5 M, sensitized guinea pig lung fragments, ovalbumin challenge, indomethacin present
[4] = 1 × 10^-6 M, sensitized guinea pig lung fragments, ovalbumin challenge, indomethacin present
[5] = 3 × 10^-6 M, sensitized guinea pig lung fragments, ovalbumin challenge, indomethacin present
[6] = 3 × 10^-5 M, sensitized guinea pig lung fragments, ovalbumin challenge, indomethacin present

Compound	inhibition at 10 µM [2, 3]	inhibition at 30 µM [2, 6]	also measured
Cc1ccc2c(N)ccc(O)c2n1 [Example 2, 2-methyl-5-amino-8-hydroxyquinoline]			pKa [1]: 5
O=C1C(Nc2ccccc2C(F)(F)F)=CC(=O)c2ncccc21 [6-(2-trifluoromethylanilino)quinoline-5,8-quinone]	52%		
Cc1cccc(NC2=CC(=O)c3ncccc3C2=O)c1 [Example 20, 6-(3-methylanilino)quinoline-5,8-quinone]	69%		
CCN(C1=CC(=O)c2ncccc2C1=O)c1ccccc1 [Example 15, 6-(N--ethylanilino)quinoline-5,8-quinone]	53%		
CN(C1=CC(=O)c2ncccc2C1=O)c1ccccc1 [6-(N--methylanilino)quinoline-5,8-quinone]	80%		inhibition at 1 µM [2, 4]: 16%; inhibition at 3 µM [2, 5]: 27%
6-(flouroanilino)quinoline-5,8-quinone [Example 16]			Percent Inhibition of SRS-A Release [2, 3]: 39%
C=CCN(C1=CC(=O)c2ncccc2C1=O)c1ccccc1 [6-[N--(2-propenyl)anilino]quinoline-5,8-quinone]	41%		
O=C1C(Nc2cccc(Cl)c2)=CC(=O)c2ncccc21 [Example 22, 6-(3-chloroanilino)quinoline-5,8-quinone]	71%		
O=C1C(Nc2ccc(O)cc2)=CC(=O)c2ncccc21 [Example 13, 6-(4-hydroxyanilino)quinoline-5,8-quinone]	58%		
COc1ccccc1NC1=CC(=O)c2ncccc2C1=O [6-(2-methoxyanilino)quinoline-5,8-quinone]		38%	inhibition at 3 µM [2, 5]: 0%
O=C1C(Nc2cccc(Br)c2)=CC(=O)c2ncccc21 [Example 23, 6-(3-bromoanilino)quinoline-5,8-quinone]	45%		
O=C1C(Nc2cccc(C(F)(F)F)c2)=CC(=O)c2ncccc21 [Example 24, 6-(3-triflouromethylanilino)quinoline-5,8-quinone]	53%		
COc1cccc(NC2=CC(=O)c3ncccc3C2=O)c1 [Example 21, 6-(3-methoxyanilino)quinoline-5,8-quinone]	72%		
CN(C)CCNC1=CC(=O)c2ncccc2C1=O [Example 18, 6-dimethylaminoethylaminoquinoline-5,8-quinone]	40%		
Cc1ccc2c(n1)C(=O)C=C(Nc1ccccc1)C2=O [Example 11, 2-methyl-6-anilinoquinoline-5,8-quinone]	55%		
O=C1C(Nc2ccc([N+](=O)[O-])cc2)=CC(=O)c2ncccc21 [Example 9, 6-(4-nitroanilino)quinoline-5,8-quinone]	41%		
O=C1C(N2CCCCC2)=CC(=O)c2ncccc21 [6-piperidinylquinoline-5,8-quinone]	68%		
O=C1C(Nc2ccccc2)=CC(=O)c2ncccc21 [7,10, 6-anilinoquinoline-5,8-quinone]			inhibition at 1 µM [2]: 28%; inhibition at 3 µM [2]: 54%; inhibition at 10 µM [2]: 79%; inhibition at 30 µM [2]: 86%

Compound	inhibition at 10 µM [2, 3]	inhibition at 30 µM [2, 6]	also measured
O=C1C(Nc2ccccc2F)=CC(=O)c2ncccc21 [Example 17, 6-(2-flouroanilino)quinoline-5,8-quinone]	71%		inhibition at 1 µM [2, 4]: 0%
CCCN(C1=CC(=O)c2ncccc2C1=O)c1ccccc1 [6-(N--propylanilino)quinoline-5,8-quinone]	28%	39%	
O=C1C(Nc2cccc3c2CCCC3)=CC(=O)c2ncccc21 [Example 12, 6-(1-amino-5,6,7,8-tetrahydronaphthalene)quinoline-5,8-quinone]	23%		
COc1ccc(NC2=CC(=O)c3ncccc3C2=O)cc1 [Example 8, 6-(4-methoxyanilino)quinoline-5,8-quinone]	32%		
CNC1=CC(=O)c2ncccc2C1=O [6-methylaminoquinoline-5,8-quinone]	28%	51%	
O=C1C(N2CCOCC2)=CC(=O)c2ncccc21 [6-morpholinylquinoline-5,8-quinone]	28%	63%	
Cc1ccccc1NC1=CC(=O)c2ncccc2C1=O [6-(2-methylanilino)quinoline-5,8-quinone]		80%	inhibition at 3 µM [2, 5]: 17%
CC(C)NC1=CC(=O)c2ncccc2C1=O [6-isopropylaminoquinoline-5,8-quinone]		28%	
O=C1C(NC2CC2)=CC(=O)c2ncccc21 [6-cyclopropylaminoquinoline-5,8-quinone]		48%	
C=CCNC1=CC(=O)c2ncccc2C1=O [6-(2-propenyl)aminoquinoline-5,8-quinone]	53%		
CSc1cccc(NC2=CC(=O)c3ncccc3C2=O)c1 [6-(3-methylthioanilino)quinoline-5,8-quinone]		55%	inhibition at 3 µM [2, 5]: 16%
O=C1C(Nc2cccc(F)c2)=CC(=O)c2ncccc21 [Example 19, 6-(3-flouroanilino)quinoline-5,8-quinone]	76%	94%	inhibition at 1 µM [2, 4]: 13%
O=C1C(Nc2ccc(Cl)cc2)=CC(=O)c2ncccc21 [6-(4-chloroanilino)quinoline-5,8-quinone]	23%	68%	
CCCN(C)C1=CC(=O)c2ncccc2C1=O [6-methylpropylaminoquinoline-5,8-quinone]			Percent Inhibition of SRS-A Release [2, 6]: 61%
COc1cc(N)c2ncccc2c1N [Example 1, 5,8-diamino-6-methoxyquinoline]			pKa [1]: 5.08
CC(=O)c1cccc(NC2=CC(=O)c3ncccc3C2=O)c1 [Example 25, 6-(3-acetylanilino)quinoline-5,8-quinone]			inhibition at 3 µM [2, 5]: 36%
O=C1C(NC2CCCCC2)=CC(=O)c2ncccc21 [Example 14, 6-cyclohexylaminoquinoline-5,8-quinone]	53%		inhibition at 1 µM [2, 4]: 0%
O=C1C(Nc2ccccc2Cl)=CC(=O)c2ncccc21 [6-(2-chloroanilino)quinoline-5,8-quinone]		78%	inhibition at 1 µM [2, 4]: 24%; inhibition at 3 µM [2, 5]: 23%
